Assay results: article PMC7667569, “Chemical Composition and Biological Activities of Endophytic Fungus Talaromyces Wortmannii LGT-4, Cultured in CYM Medium” (Iranian Journal of Pharmaceutical Research : IJPR, 2020)
≈ marks a conversion by molar mass, not a printed value.

Tested on: T1, monoamine oxidase (MAO)
T1 construct: gene MAOA
Test: MAO inhibition assay (procedure by reference)
Details: isoenzyme and enzyme source not told

Compound	IC50 [µg/mL]
O=C1OCc2c(O)cccc21 [compound 1, 4-hydroxyphthalide]	35 (≈ 233 µM)
C[C@@H]1NC(=O)[C@@H]2CCCN2C1=O [compound 5, Cis-cyclo(L-Ala-L-Pro)]	28 (≈ 166 µM)
